pIC50: −log10 of the molar value.
Key:
[1] = target: T1, recombinant HIV (pNL4-3) heterodimeric (p66/p51) Reverse Transcriptase (Human immunodeficiency virus type 1 group M subtype B, UniProt P12497); assay: reverse transcriptase assay; type: biochemical
T1 construct: purified recombinant HIV (pNL4-3) heterodimeric (p66/p51) Reverse Transcriptase (RT); purchased
Procedure: (§1) For the assays listed in Table I, the integrase assay was conducted using the XpressBio HIV-1 Integrase Assay Kit according to the manufacture's protocol. The protease assay was conducted with the Anthranilyl (Abz)-HIV Protease Substrate (Bachem H-2992), a hexapeptide FRET substrate derived from the p24/p15 cleavage site of the viral gag-pol poly-protein, which allows the screening of potential HIV protease inhibitors. 1 mM Abz-Substrate was diluted with Assay Buffer to a working stock of 20 μM. A 50 μM stock HIV-1 protease (received from Sook-kyung Lee (UNC)) was diluted with Assay Buffer (50 mM HEPES, pH 6.8, 150 mM NaCl, and 1% DMSO) to a working stock of 100 nM. 2 μl 100 nM HIV-1 Protease along with 2 uL 20 μM Abz Substrate was added into each well and incubated at room temperature (avoiding light) for 1 hour before being read on an Envision plate reader (Perkin Elmer) excitation at 280 nm, emission at >435 nm. The reverse transcriptase assay utilized purified recombinant HIV (pNL4-3) heterodimeric (p66/p51) Reverse Transcriptase (RT) that was purchased from a commercially available source. The assay was performed in 96-well filter plate, where RT activity was determined by the incorporation of radiolabeled deoxyribonucleotides into the newly synthesized DNA strand. The RT reaction mixture contained in vitro transcribed viral RNA derived from the HIV-1NL4-3 5′-LTR region (position 454 to 652) and primer that is complementary to the primer binding site (PBS, nucleotide residues nucleotides 636 to 652), radiolabeled deoxyribonucleotide, dNTPs and reverse transcriptase. Briefly, the reaction was carried out in a volume of 50 μl containing 50 mM Tris HCl, pH 7.8, 50 mM KCl, 5 mM MgCl2, 1 mM DTT, 50 μM each of dATP, dCTP, dGTP, 50 nM dTTP, 1 μCi of [^3H] dTTP (70-90 Ci/mM) and 5 nM template/primer. The reaction was initiated by the addition of 10 nM RT. For compound screening, serially diluted test articles were added to the reaction followed by the addition of RT. The reaction mixture was incubated at 37° C. for 1 h, and then quenched by the addition of ice-cold trichloroacetic acid (TCA) to the final concentration of 10%. The plate was incubated at 4° C. for 1 h to precipitate the synthesized DNA, then rinsed 3-times with 10% TCA and 1 time with 70% ethanol. After addition of 25 μl scintillation fluid to completely dried wells, radioactivity is counted by MicroBeta scintillation counter. The reduction of radioactivity represents the potency of compound inhibition.

PBMCs = assay: PBMC Acute Infection, cytotoxicity (CC50/CC90); type: cell-based
Procedure: PHA-stimulated cells from at least two normal donors were pooled (i.e. mixed together), diluted in fresh medium to a final concentration of 1×10^6 cells/mL, and plated in the interior wells of a 96-well round bottom microplate at 50 μL/well (5×10^4 cells/well). Pooling of mononuclear cells from more than one donor was used to minimize the variability observed between individual donors in quantitative and qualitative differences in HIV infection and overall response to the PHA and IL-2 of primary lymphocyte populations. Each plate contained virus control wells (cells plus virus) and experimental wells (drug plus cells plus virus) of either 00KE_KER2008 (Subtype A), IIIB (Subtype B), or 98US_MSC5016 (Subtype C). Test drug dilutions were prepared at a 2×concentration and 100 μL of each concentration was placed in appropriate wells. Fifty μL of a predetermined dilution of virus stock was placed in each test well (final MOI≅0.1). After this period, cell-free supernatant samples were collected for analysis of reverse transcriptase (RT) activity with an RT assay. […] In the Table below SI50=CC50/EC50 and SI90=CC90/EC90.

HIV-1 Integrase = target: T2, HIV-1 Integrase (Human immunodeficiency virus type 1 group M subtype B, UniProt P12497); assay: integrase assay (XpressBio HIV-1 Integrase Assay Kit); type: biochemical
T2 construct: the integrase assay was conducted using the XpressBio HIV-1 Integrase Assay Kit; purchased XpressBio
Procedure: as §1

HIV-1 protease = target: T3, HIV-1 protease (Human immunodeficiency virus type 1 group M subtype B, UniProt P12497); assay: protease assay (Abz-HIV Protease Substrate FRET); type: biochemical
T3 construct: A 50 μM stock HIV-1 protease (received from Sook-kyung Lee (UNC)); gift from Sook-kyung Lee (UNC)
Procedure: as §1

Row | Compound | pIC50 [1] | activity against HIV reverse transcriptase (result in words) [1] | CC90 (PBMCs; row of isolate 98US_MSC5016, subtype C) [µM] | CC90 (PBMCs; row of isolate IIIB, subtype B) [µM] | pIC50 (HIV-1 Integrase) | activity against HIV integrase (result in words) (HIV-1 Integrase) | pIC50 (HIV-1 protease) | activity against HIV protease (result in words) (HIV-1 protease)
1 | CCc1c2c(nc3ccc(N)cc13)-c1cc3c(c(=O)n1C2)CNC(=O)[C@]3(O)CC [Compound O5-SN, (S)-9-Amino-4,11-diethyl-4-hydroxy-1,2-dihydroquinolino[2′,3′:3,4]pyrrolo[1,2-b][2,7]naphthyridine-3,14(4H,12H)-dione] | < 4.00 | inactive | > 100 | > 100 | < 4.00 | inactive | < 4.00 | inactive
2 | CCc1c2c(nc3ccc(O)cc13)-c1cc3c(c(=O)n1C2)CNC(=O)[C@]3(O)CC [SN38-L, (S)-4,11-Diethyl-4,9-dihydroxy-1,2-dihydroquinolino[2′,3′:3,4]pyrrolo[1,2-b][2,7]naphthyridine-3,14(4H,12H)-dione] | < 4.00 | inactive |  |  | < 4.00 | inactive | < 4.00 | inactive
